Key:
Assay type in all cases: cell-based
[1] = system: mouse Kras; p16p19null rhabdomyosarcoma cell line; test: In vitro growth assay (MTT) in mouse Kras; p16p19null rhabdomyosarcoma cell line; details: 48 hours
Source text: (§1) FIG. 8: In vitro screening of candidate targets. Sarcoma cells were exposed to increasing concentrations of Torin (10, 50, 250 nMol), Rapamycin (10, 50, 100 nMol), RL0061425 (10, 50, 100, 500, 1000 nMol), SB525334 (1, 10, 50, 100, 500 nMol), SD208 (10, 50, 100, 500, 1000 nMol), and Ethanol and DMSO (as a control).
(§2) To begin to evaluate the effects of candidate target genes in sarcoma cells, we have established in vitro assays in which the proliferation of sarcoma cell lines exposed to selected chemical compounds is measured by MTT (3-(4,5-Dimethylthiazol-2-yl)-2,5-diphenyltretrazolium bromide) assay at defined time points. All experiments are carried out in low-passage cell lines established from modeled Kras rhabdomyosarcomas of satellite cell origin. For comparison, we also studied the effects of these compounds in the human embryonal rhabdomyosarcoma cell line RD. In these studies, we focused first on a small set of readily available chemical compounds (obtained from D. Guertin and L. Rubin at the University of Massachusetts and the Harvard Stem Cell Institute, respectively), whose targets include the TGFβ and mammalian target of rapamycin (mTOR) signaling pathways. As discussed above, the TGFβ pathway was implicated in sarcoma pathogenesis by our prior bioinformatics analyses. mTOR was tested as well because Ras pathway activation has been reported to promote mTOR signaling (Carriere, A., Romeo, Y., Acosta-Jaquez, H. A., Moreau, J., Bonneil, E., Thibault, P. Fingar, D. C., Roux, P. P., ERK1/2 Phosphorylate Raptor to Promote Ras-dependent Activation of mTOR Complex 1 (mTORC1). J Biol Chem 286 (1), 567 (2011)), and many genes on our list appear to interact with this signaling pathway (data not shown). Finally, gene ontology analyses of the 146 sarcoma-associated genes discussed above identified 61 genes that function in cell growth and proliferation (i.e., key cellular activities often regulated by mTOR).
(§3) Cell lines from the modeled sarcomas were exposed to graded concentrations of mTOR inhibitors (Rapamycin, Torin) or TGF inhibitors (RL0061425, SB525334, SD208). […]

[2] = system: human rhabdomyosarcoma cell line RD; test: In vitro growth assay (MTT) in human rhabdomyosarcoma cell line RD; details: 96 hours
Source text: as §1
To begin to evaluate the effects of candidate target genes in sarcoma cells, we have established in vitro assays in which the proliferation of sarcoma cell lines exposed to selected chemical compounds is measured by MTT (3-(4,5-Dimethylthiazol-2-yl)-2,5-diphenyltretrazolium bromide) assay at defined time points. All experiments are carried out in low-passage cell lines established from modeled Kras rhabdomyosarcomas of satellite cell origin. For comparison, we also studied the effects of these compounds in the human embryonal rhabdomyosarcoma cell line RD. In these studies, we focused first on a small set of readily available chemical compounds (obtained from D. Guertin and L. Rubin at the University of Massachusetts and the Harvard Stem Cell Institute, respectively), whose targets include the TGFβ and mammalian target of rapamycin (mTOR) signaling pathways. […]

[3] = system: mouse Kras; p16p19null sarcoma line; test: In vitro growth assay (MTT) in mouse Kras; p16p19null sarcoma line; details: 96 hours
Source text: as §1, §2, §3

[4] = tested at 10, 50, 100, 500, 1000 nMol

Cc1cccc(-c2[nH]c(C(C)(C)C)nc2-c2ccc3nccnc3c2)n1 [SB525334]
cell growth (fold-increase in MTT-uptake) ([1]; 1, 10, 50, 100, 500 nMol): no major effect | cell growth (fold-increase in MTT-uptake) ([2]; 1, 10, 50, 100, 500 nMol): no major effect | cell growth (fold-increase in MTT-uptake) ([3]; 1, 10, 50, 100, 500 nMol): no major effect

Fc1ccc(Cl)cc1-c1nc(Nc2ccncc2)c2nccnc2n1 [SD208]
concentration at which growth was inhibited (MTT-uptake) [1, 4]: ≥ 500 nmol | concentration at which growth was inhibited (MTT-uptake) [3, 4]: ≥ 500 nmol

Torin
cell growth (fold-increase in MTT-uptake) ([1]; 250 nMol): reduced the growth | cell growth (fold-increase in MTT-uptake) ([2]; 250 nMol): reduced the growth | cell growth (fold-increase in MTT-uptake) ([3]; 250 nMol): reduced the growth
